According to patent US20230321122A1, “ACTIVE AGENT MODULATING THE ACTIVITY OF AN ION CHANNEL FOR USE IN HAIR GROWTH REGULATION” (CUTANEON - Skin & Hair Innovations GmbH, priority 2020, published 2023):

What was measured:
human hair follicles [1] = experiment: Human hair follicle organ culture, hair cycle staging; type: cell-based; settings: for hair cycle stage of hair follicles (anagen) vs vehicle: 12.5 (unit not given), day 3 and day 6, FIGS. 8, 9
Method: Human anagen hair follicles were isolated from the skin of males undergoing hair transplantation with written informed consent. Microdissected hair follicles were amputated at the level of dermal-subcutaneous junction and equilibrated in Williams' E medium (WEM) (Life Technologies) supplemented with 2 mM L-glutamine (Life Technologies), 10 ng/ml hydrocortisone, 10 μg/ml insulin, and antibiotics (all from Sigma-Aldrich). After 24 hours, growing undamaged anagen hair follicles were selected for treatment with DMP Human hair follicles were cultured in presence of DMP (12.5 The culture medium was changed every two days with addition of DMP. Hair follicles were photographed and percentage of hair follicles at different stages of hair cycle were calculated at day 3 and day 6 of the treatment and compared to vehicle.
(§1) Human anagen hair follicles were isolated from the skin of males undergoing hair transplantation with written informed consent. […] After 24 hours, growing undamaged anagen hair follicles were selected for treatment with 2-Hep (12.5 The culture medium was changed every two days with addition of 2-Hep. Hair follicles were photographed and percentage of hair follicles at different stages of hair cycle were calculated at day 3 and day 6 of the treatment and compared to vehicle.
as §1, with “human hair follicles were cultured in presence of TPPO (150” for “2-Hep (12.5”, “TPPO.” for “2-Hep.”

human hair follicles [2] = experiment: Quantitative PCR gene expression in compound-treated human hair follicles; type: cell-based; settings: 6 hours, vs vehicle
Method: Total RNA was isolated using PICOPURE® RNA Isolation Kit (Applied BioSystems) according to the manufacturer's protocol. After isolation, 100 ng of total RNA was reverse-transcribed into cDNA using a TETRO® cDNA synthesis kit (Bioline). Quantitative-PCR was performed using the StepOne Plus real time PCR system (Applied Biosystems) using TAQMAN® fast advanced master mix and TAQMAN® probes for LEF1, IGF1, TGFB2 AND SFRP1 (Applied Biosystems). The amount of the aforementioned transcripts was normalized to the expression of reference gene (GAPDH) using the ΔΔCt method. Results were performed in triplicate for each experiment.
For gene expression analysis, human hair follicles were microdissected as above and treated with 2-Hep (12.5 uM) for 6 hours. Following the treatment, total RNA was isolated and processed for cDNA synthesis as above. Quantitate PCR was performed using TAQMAN® assay with probes for TGFB2 and AXIN2 (Applied Biosystems).
For gene expression analysis, human hair follicles were microdissected as above and treated with TPPO (150 uM) for 6 hours. Following the treatment, total RNA was isolated and processed for cDNA synthesis as above. Quantitate PCR was performed using TAQMAN® assay with probes for IGF1, FGF7 and TGFB2 (Applied Biosystems).

Structure (SMILES) | hair cycle stage of hair follicles (anagen) vs vehicle (human hair follicles [1]) | expression of AXIN2 (human hair follicles [2]; 12.5 uM, FIG. 10) | expression of TGFB2 (human hair follicles [2]; 12.5 uM, FIG. 10) | hair cycle stage of hair follicles (catagen) vs vehicle (human hair follicles [1]; 150 (unit not given), day 3 and day 6, FIG. 11) | TGFB2 transcript (human hair follicles [2]; 150 uM, FIG. 12) | expression level of FGF7 (human hair follicles [2]; 150 uM, FIG. 12) | expression level of IGF1 (human hair follicles [2]; 150 uM, FIG. 12)
CCCCCC(C)=O [2-Hep, 2-heptanone] | prolongs anagen | up-regulated | down-regulated |  |  |  | 
Cc1cnc(C)cn1 [DMP, 2,5-dimethylpyrazine] | prolongs anagen |  |  |  |  |  | 
O=P(c1ccccc1)(c1ccccc1)c1ccccc1 [TPPO, triphenylphosphine oxide] |  |  |  | promotes catagen | up-regulated | significantly down-regulated | significantly down-regulated
